Experimental data published in patent publication US11000509B2, “Methods and compositions for daily ophthalmic administration of phentolamine to improve visual performance” (Ocuphire Pharma, Inc., priority 2013, dated 2021).
Several values for one entry are separate records, joined by “and”; a condition that tells them apart may be missing. Identical values can stand only once. Counter-ions that a name gives are not always drawn. Marks after values point to notes of the source that are not given here.

How the values were obtained:
[1] = test system: eyes of patients suffering from severe night vision difficulty; assay: Example 1 clinical study: eye redness, CCLRU Redness Grading Scale regraded 0, 0.5, 1, 2, 3; type: in vivo, humans
From the text: Sixty patients with normal day vision (i.e., 20/40 or better) but which suffer from severe night vision difficulty were enrolled in the study. During the first period of the study, patients were randomized into three groups. The groups received either placebo, 0.5% (w/v) phentolamine mesylate, or 1.0% (w/v) phentolamine mesylate once daily for 15 days. […] During the second period of the study, all sixty patients were instructed to administer an ophthalmic solution of phentolamine mesylate (1% (w/v)) as needed, but no more than once daily to each eye. The ophthalmic solution of phentolamine mesylate contained: 1% (w/v) phentolamine mesylate, 4% (w/v) mannitol, 3 mM sodium acetate, and water. The placebo was a solution containing 4% (w/v) mannitol, 3 mM sodium acetate, and water.
Patients were to meet with a clinician for evaluation on study days 1, 4, 8, 15, and a post-dosing follow-up evaluation three or more days after administering the last dose in the second period. […]

[2] = test system: eyes of patients with pupil size in dim light of greater than 7 mm; assay: Example 2 clinical study: pupil diameter by NeurOptics pupilometer; one drop oxymetazoline (Visine LR) then one drop test article in Tears Naturale II in each eye; type: in vivo, humans; conditions: for Range of pupil diameters: immediately prior to administration
Protocol: Sixteen patients were randomized into four groups (of four subjects each). Each group was treated on three successive study visits separated by at least 4 days with one drop of ophthalmic oxymetazoline solution (Visine LR®) in each eye followed by one drop test article in each eye. The test article was a 0.2% (w/v) phentolamine mesylate solution, 0.4% (w/v) phentolamine mesylate solution, 0.8% (w/v) phentolamine mesylate solution, or placebo. Test articles contained the designed amount of phentolamine mesylate in a solution of Tears Naturale II® (from Alcon Labs). Placebo was just Tears Naturale II® (from Alcon Labs). Tears Naturale II® (from Alcon Labs) contains Dextran 70 (0.1% by weight), Hydroxypropyl Methylcellulose 2910 (0.3% by weight), Polyquarternium-1 (0.001% by weight), potassium chloride, water (purified), sodium borate, sodium chloride, and hydrochloric acid and/or sodium hydroxide as necessary to adjust the pH. The patients' eye redness and pupil diameters were recorded at baseline (i.e., prior to treatment administration), and at 30 minutes, 1 hour, 2 hours, 4 hours, and 8 hours after administration of test articles. The incidence of any treatment-emergent adverse events was also recorded. Total study duration was approximately nine hours.
Eye redness of patients' eyes was evaluated by the research assistant and recorded as a single integer of value 0 (no redness) to 4 (extreme redness) at baseline and each time point after treatment. Pupil diameters were measured to within 0.1 mm for each eye at baseline and each subsequent time point using a NeurOptics™ pupilometer. Monocular high contrast visual acuity was measured for each eye under photopic conditions at baseline and each subsequent time point in a darkened room using a Precision Vision™ High Contrast (100% tint) Visual Acuity Chart (Catalog #2102) backlit by the Precision Vision Illumination Box. Monocular low contrast visual acuity was measured for each eye under photopic conditions at baseline and each subsequent time point in a darkened room using a Precision Vision™ Low Contrast (5% tint) Visual Acuity Chart (Catalog #2186) backlit by the Precision Vision Illumination Box. Effect of treatment on glare was assessed using an experimental test method consisting of a panel with a high wattage central light emitting diode (LED) and a set of 7 lower wattage red LEDs radiating horizontally and vertically from the central light.
Comparisons of changes in mean values within treatment groups were tested for significance using two-tailed paired two sample t-tests with a threshold for significance set at p<0.01 (Bonferroni Correction for multiple paired t-tests). Differences between treatment groups with respect to mean values for pupil size over the course of the study were tested for significance using repeated measure ANOVA (which discards data from subjects lacking any data points). Differences in mean eye redness between treatment groups were evaluated using Kruskal-Wallis nonparametric testing. Differences in means between treatment groups at individual time points were tested for significance using one-way ANOVA.

[3] = 0.2% (w/v) solution, 30 min after treatment
[4] = 0.2% (w/v) solution, 1 hour after treatment
[5] = 0.2% (w/v) solution, 2 hours after treatment
[6] = 0.2% (w/v) solution, 4 hours after treatment
[7] = 0.2% (w/v) solution, 8 hours after treatment
[8] = 0.2% (w/v) solution, Baseline, prior to treatment
[9] = 0.4% (w/v) solution, 30 min after treatment
[10] = 0.4% (w/v) solution, 1 hour after treatment
[11] = 0.4% (w/v) solution, 2 hours after treatment
[12] = 0.4% (w/v) solution, 4 hours after treatment
[13] = 0.4% (w/v) solution, 8 hours after treatment
[14] = 0.4% (w/v) solution, Baseline, prior to treatment
[15] = 0.8% (w/v) solution, 30 min after treatment
[16] = 0.8% (w/v) solution, 1 hour after treatment
[17] = 0.8% (w/v) solution, 2 hours after treatment
[18] = 0.8% (w/v) solution, 4 hours after treatment
[19] = 0.8% (w/v) solution, 8 hours after treatment
[20] = 0.8% (w/v) solution, Baseline, prior to treatment

Cc1ccc(N(CC2=NCCN2)c2cccc(O)c2)cc1 [Phentolamine Mesylate, phentolamine mesylate]
eye redness ([1]; immediately after administration (FIG. 5)): increases | eye redness ([1]; measured prior to administration on days 4, 8, and 15 (FIG. 5)): returns to baseline | Maximum pupil diameter [2, 3]: 9.2 mm | Mean change in pupil diameter from baseline [2, 3]: −0.04 mm | Mean pupil diameter [2, 3]: 7.74 mm | Minimum pupil diameter [2, 3]: 5.1 mm | Maximum pupil diameter [2, 4]: 8.9 mm | Mean change in pupil diameter from baseline [2, 4]: −0.24 mm | Mean pupil diameter [2, 4]: 7.54 mm | Minimum pupil diameter [2, 4]: 4.9 mm | Maximum pupil diameter [2, 5]: 8.4 mm | Mean change in pupil diameter from baseline [2, 5]: −0.75 mm | Mean pupil diameter [2, 5]: 7.01^c mm | Minimum pupil diameter [2, 5]: 4.7 mm | Maximum pupil diameter [2, 6]: 8.0 mm | Mean change in pupil diameter from baseline [2, 6]: −0.69 mm | Mean pupil diameter [2, 6]: 7.30^d mm | Minimum pupil diameter [2, 6]: 6.3 mm | Maximum pupil diameter [2, 7]: 8.5 mm | Mean change in pupil diameter from baseline [2, 7]: −0.59 mm | Mean pupil diameter [2, 7]: 7.18 mm | Minimum pupil diameter [2, 7]: 4.7 mm | Range of pupil diameters ([2]; 0.2% (w/v) solution, Baseline): 5.2-8.8 mm | Maximum pupil diameter [2, 8]: 8.8 mm | Mean pupil diameter [2, 8]: 7.8 mm and 7.78 mm | Minimum pupil diameter [2, 8]: 5.2 mm | change from baseline in mean pupil diameter, significance ([2]; 0.2%, 0.4% and 0.8% (w/v), by one hour post treatment, p<0.01): significant | mean pupil diameter between different doses ([2]; 0.2%, 0.4%, 0.8% (w/v), any time point): no statistically significant differences | Maximum pupil diameter [2, 9]: 8.8 mm | Mean change in pupil diameter from baseline [2, 9]: 0.00 mm | Mean pupil diameter [2, 9]: 7.72 mm | Minimum pupil diameter [2, 9]: 5.6 mm | Maximum pupil diameter [2, 10]: 8.3 mm | Mean change in pupil diameter from baseline [2, 10]: −0.29 mm | Mean pupil diameter [2, 10]: 7.41 mm | Minimum pupil diameter [2, 10]: 5.5 mm | Maximum pupil diameter [2, 11]: 8.4 mm | Mean change in pupil diameter from baseline [2, 11]: −0.64 mm | Mean pupil diameter [2, 11]: 7.05 mm | Minimum pupil diameter [2, 11]: 5.0 mm | Maximum pupil diameter [2, 12]: 8.1 mm | Mean change in pupil diameter from baseline [2, 12]: −0.74 mm | Mean pupil diameter [2, 12]: 7.01 mm | Minimum pupil diameter [2, 12]: 5.0 mm | Maximum pupil diameter [2, 13]: 8.6 mm | Mean change in pupil diameter from baseline [2, 13]: −0.74 mm | Mean pupil diameter [2, 13]: 7.01 mm | Minimum pupil diameter [2, 13]: 4.8 mm | Range of pupil diameters ([2]; 0.4% (w/v) solution, Baseline): 5.8-8.6 mm | Maximum pupil diameter [2, 14]: 8.6 mm | Mean pupil diameter [2, 14]: 7.7 mm and 7.71 mm | Minimum pupil diameter [2, 14]: 5.8 mm | Maximum pupil diameter [2, 15]: 9.2 mm | Mean change in pupil diameter from baseline [2, 15]: −0.10 mm | Mean pupil diameter [2, 15]: 7.87 mm | Minimum pupil diameter [2, 15]: 5.2 mm | Maximum pupil diameter [2, 16]: 9.1 mm | Mean change in pupil diameter from baseline [2, 16]: −0.27 mm | Mean pupil diameter [2, 16]: 7.69 mm | Minimum pupil diameter [2, 16]: 5.1 mm | Maximum pupil diameter [2, 17]: 8.7 mm | Mean change in pupil diameter from baseline [2, 17]: −0.66 mm | Mean pupil diameter [2, 17]: 7.30 mm | Minimum pupil diameter [2, 17]: 4.7 mm | Maximum pupil diameter [2, 18]: 8.6 mm | Mean change in pupil diameter from baseline [2, 18]: −0.64 mm | Mean pupil diameter [2, 18]: 7.32 mm | Minimum pupil diameter [2, 18]: 5.5 mm | Maximum pupil diameter [2, 19]: 8.7 mm | Mean change in pupil diameter from baseline [2, 19]: −0.56 mm | Mean pupil diameter [2, 19]: 7.40 mm | Minimum pupil diameter [2, 19]: 4.7 mm | Range of pupil diameters ([2]; 0.8% (w/v) solution, Baseline): 4.6-9.3 mm | Maximum pupil diameter [2, 20]: 9.3 mm | Mean pupil diameter [2, 20]: 8.0 mm and 7.96 mm | Minimum pupil diameter [2, 20]: 4.6 mm | mean pupil diameter compared to placebo (ad hoc Fisher's test) ([2]; any concentration (0.2%, 0.4%, 0.8% w/v), 2, 4 and 8 hours): significant differences
